Measured values: the supplement of paper PMC7017272
± gives the standard deviation of the averaged measurements.

Assays:
Details in all cases: treatment time: 3 days
UT-SCC-28 [1] = experiment: relative IC50 (midpoint of the fitted curve; maximal inhibition may be below 50%); higher = less potent
Method in brief: (§1)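 Viability of HPV-negative HNSCC cell lines was measured by CellTiter-Glo 2.0 luminescence. Cells were seeded at 500 cells/well in 384-well plates on plastic, on Matrigel- or Myogel-coated wells (500 µg/mL), or embedded in Matrigel or Myogel plus rat collagen I, then given compounds at five 10-fold concentrations for 3 days, with signals normalised to vehicle (0.1% DMSO) and cell-killing control wells. Fitting of percent-inhibition dose–response curves in the FIMM pipeline yielded IC50, maximal inhibition and drug sensitivity score.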

UT-SCC-81 [2] = experiment: as above
Method in brief: as §1

UT-SCC-24B [3] = experiment: as above
Method in brief: as §1

UT-SCC-40 [4] = experiment: as above
Method in brief: as §1

UT-SCC-28 [5] = experiment: maximal % inhibition of viability relative to DMSO; higher = stronger effect
Protocol: (§2)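 HNSCC cell lines (500 cells/well, 384-well) were cultured on plastic, on top of (2D) or embedded (3D) in Matrigel or human leiomyoma matrix Myogel (500 ug/mL; Myogel 3D mixed with rat collagen I). Cells were treated for 3 days with 5 ten-fold concentrations of each drug, and viability was read by CellTiter-Glo. Viability was normalised to DMSO and benzethonium chloride controls and fitted with the FIMM DSRT pipeline to give IC50 (nM), maximal % inhibition and DSS. Suffixes _1/_2/_3 are replicates. Only inhibition-mode (IC50) fits are kept.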

UT-SCC-81 [6] = experiment: as above
Protocol: as §2

UT-SCC-44 = experiment: as above
Protocol: as §2

UT-SCC-42A = experiment: as above
Protocol: as §2

UT-SCC-14 = experiment: as above
Protocol: as §2

UT-SCC-24B [7] = experiment: as above
Protocol: as §2

UT-SCC-42B = experiment: as above
Protocol: as §2

UT-SCC-40 [8] = experiment: as above
Protocol: as §2

UT-SCC-73 = experiment: as above
Protocol: as §2

UT-SCC-8 = experiment: as above
Protocol: as §2

UT-SCC-106A = experiment: as above
Protocol: as §2

UT-SCC-24A = experiment: drug sensitivity score (DSS); higher = more sensitive
Protocol: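 HNSCC cell lines (500 cells/well, 384-well) were cultured on plastic, on top of (2D) or embedded (3D) in Matrigel or human leiomyoma matrix Myogel (500 ug/mL; Myogel 3D mixed with rat collagen I). Cells were treated for 3 days with 5 ten-fold concentrations of each drug, and viability was read by CellTiter-Glo. Suffixes _1/_2/_3 on drug names are replicates.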

[9] = culture condition: embedded in Matrigel
[10] = culture condition: plastic 2D (no matrix)
[11] = culture condition: embedded in Myogel + collagen I
[12] = culture condition: on top of Myogel
[13] = culture condition: on top of Matrigel

Cn1c(=O)n(-c2ccc(C(C)(C)C#N)cc2)c2c3cc(-c4cnc5ccccc5c4)ccc3ncc21 [Dactolisib]
relative IC50 (UT-SCC-28 [1]; [9]): > 989 nM
relative IC50 (UT-SCC-28 [1]; [10]): > 989 nM
relative IC50 (UT-SCC-81 [2]; [11]): > 989 nM
relative IC50 (UT-SCC-81 [2]; [12]): > 989 nM
relative IC50 (UT-SCC-81 [2]; [10]): > 989 nM
relative IC50 (UT-SCC-24B [3]; [9]): 55.5 nM
relative IC50 (UT-SCC-24B [3]; [11]): 22.1 nM
relative IC50 (UT-SCC-24B [3]; [13]): 33.4 nM
relative IC50 (UT-SCC-24B [3]; [12]): 31.3 nM
relative IC50 (UT-SCC-24B [3]; [10]): 34.7 nM
relative IC50 (UT-SCC-40 [4]; [12]): > 989 nM
relative IC50 (UT-SCC-40 [4]; [10]): > 989 nM
maximal % inhibition of viability (UT-SCC-28 [5]; [9]): 19.7 ± 5%
maximal % inhibition of viability (UT-SCC-28 [5]; [11]): 9.5 ± 12%
maximal % inhibition of viability (UT-SCC-28 [5]; [13]): 13.3 ± 2.7%
maximal % inhibition of viability (UT-SCC-28 [5]; [10]): 8.33 ± 5.8%
maximal % inhibition of viability (UT-SCC-81 [6]; [9]): 40.7 ± 33%
maximal % inhibition of viability (UT-SCC-81 [6]; [11]): 7.33 ± 3.7%
maximal % inhibition of viability (UT-SCC-81 [6]; [13]): 5.13 ± 5.4%
maximal % inhibition of viability (UT-SCC-81 [6]; [12]): 11.2 ± 3.1%
maximal % inhibition of viability (UT-SCC-81 [6]; [10]): 6.5 ± 2.2%
maximal % inhibition of viability (UT-SCC-44; [9]): 12.5 ± 9.3%
maximal % inhibition of viability (UT-SCC-44; [11]): 13.2 ± 23%
maximal % inhibition of viability (UT-SCC-44; [13]): 13.7 ± 2.4%
maximal % inhibition of viability (UT-SCC-44; [12]): 12.8 ± 4.1%
maximal % inhibition of viability (UT-SCC-44; [10]): 16.8 ± 4.5%
maximal % inhibition of viability (UT-SCC-42A; [9]): 0.767 ± 1.3%
maximal % inhibition of viability (UT-SCC-42A; [11]): 6.03 ± 5.7%
maximal % inhibition of viability (UT-SCC-42A; [13]): 9.57 ± 4.9%
maximal % inhibition of viability (UT-SCC-42A; [12]): 4.37 ± 2.7%
maximal % inhibition of viability (UT-SCC-42A; [10]): 8.8 ± 3.1%
maximal % inhibition of viability (UT-SCC-14; [9]): 16.8 ± 19%
maximal % inhibition of viability (UT-SCC-14; [11]): 16.2 ± 15%
maximal % inhibition of viability (UT-SCC-14; [13]): 7.17 ± 5.8%
maximal % inhibition of viability (UT-SCC-14; [12]): 7.03 ± 7.9%
maximal % inhibition of viability (UT-SCC-14; [10]): 11.7 ± 10%
maximal % inhibition of viability (UT-SCC-24B [7]; [9]): 77.4 ± 0.93%
maximal % inhibition of viability (UT-SCC-24B [7]; [11]): 83.8 ± 1.4%
maximal % inhibition of viability (UT-SCC-24B [7]; [13]): 78.6 ± 1.1%
maximal % inhibition of viability (UT-SCC-24B [7]; [12]): 78.2 ± 1.9%
maximal % inhibition of viability (UT-SCC-24B [7]; [10]): 76.2 ± 2.5%
maximal % inhibition of viability (UT-SCC-42B; [9]): 12.9 ± 6%
maximal % inhibition of viability (UT-SCC-42B; [13]): 10.9 ± 6.9%
maximal % inhibition of viability (UT-SCC-42B; [12]): 6.13 ± 1.8%
maximal % inhibition of viability (UT-SCC-42B; [10]): 1.67 ± 0.57%
maximal % inhibition of viability (UT-SCC-40 [8]; [9]): 18.2 ± 15%
maximal % inhibition of viability (UT-SCC-40 [8]; [11]): 8.93 ± 7.8%
maximal % inhibition of viability (UT-SCC-40 [8]; [13]): 9.4 ± 3.6%
maximal % inhibition of viability (UT-SCC-40 [8]; [12]): 7.2 ± 4.8%
maximal % inhibition of viability (UT-SCC-40 [8]; [10]): 2.4 ± 2.4%
maximal % inhibition of viability (UT-SCC-73; [9]): 11.8 ± 3.4%
maximal % inhibition of viability (UT-SCC-73; [11]): 40.1 ± 8.9%
maximal % inhibition of viability (UT-SCC-73; [13]): 9.33 ± 2.9%
maximal % inhibition of viability (UT-SCC-73; [12]): 8.23 ± 2.8%
maximal % inhibition of viability (UT-SCC-73; [10]): 1.63 ± 0.76%
maximal % inhibition of viability (UT-SCC-8; [9]): 8.63 ± 5.4%
maximal % inhibition of viability (UT-SCC-8; [11]): 18.3 ± 10%
maximal % inhibition of viability (UT-SCC-8; [13]): 13.2 ± 5.7%
maximal % inhibition of viability (UT-SCC-8; [12]): 9.7 ± 6.6%
maximal % inhibition of viability (UT-SCC-8; [10]): 6.9 ± 6.6%
maximal % inhibition of viability (UT-SCC-106A; [9]): 3.67 ± 0.31%
maximal % inhibition of viability (UT-SCC-106A; [11]): 7.53 ± 8.4%
maximal % inhibition of viability (UT-SCC-106A; [13]): 4.43 ± 3.8%
maximal % inhibition of viability (UT-SCC-106A; [12]): 5.1 ± 8.8%
maximal % inhibition of viability (UT-SCC-106A; [10]): 7.07 ± 3.2%
drug sensitivity score (UT-SCC-24A; [9]): 5.73 ± 5 DSS
drug sensitivity score (UT-SCC-24A; [11]): 0.767 ± 1.3 DSS
drug sensitivity score (UT-SCC-24A; [13]): 0 DSS
drug sensitivity score (UT-SCC-24A; [12]): 0 DSS
drug sensitivity score (UT-SCC-24A; [10]): 0 DSS
